The results in this text go back to US6958360B2, “Attractant pheromone for the Colorado potato beetle” (The United States of America as represented by the …, priority 2001, dated 2005).

The subject of assay [1] is antennal olfactory receptors (short sensillum on the penultimate antennal segment of a CPB). Put plainly: Single sensillum (single cell) recording of receptor neuron response. Also noted: species or system Leptinotarsa decemlineata. Conditions: 100 ng source load; solvent control 8. As to the method: (§1) Sensitivity of antennal olfactory receptors for the racemate and optical isomers of the male specific compound were tested using coupled GC/EAD and single sensillum recording techniques. GC/EAD tests involved injection of 1 μl of serial dilutions of 3,7-dimethyl-2-oxo-oct-6-ene-1,3-diol (CPB I).

A further assay concerns CPB adult antenna. Put plainly: Coupled GC/electroantennogram detection (GC/EAD, EAG). The arrangement: species or system Leptinotarsa decemlineata. The following applies: for EAD response to compound in volatile collections (in words): volatiles from potato plants / CPB feeding on plant. The procedure:
Vertical bars represent standard errors (N=6, 3 males and 3 females).
GC/EAD analysis of volatile collections: One microlitre samples of volatile collections were injected into a Hewlett Packard™ Model 5890A gas chromatograph (GC) equipped with an HP-5 capillary column (crosslinked 5% PH ME Siloxane; film thickness 0.25 μm; length 30 m; i.d. 0.25 mm) and flame ionization detector (FID). The effluent from the column was split using a Gerstel™ GraphPack-3D/2 splitter with a ratio of ˜1 to the GC (FID): 4 to an electroantennogram preparation of a CPB adult (EAD). The EAD preparation was an adult CPB antenna removed and mounted between two glass capillary electrodes filled with 0.1M NaCl. Ag—AgCl wires in the glass capillaries. An effluent conditioning assembly to carry GC effluent over a CPB antennal preparation, hardware, and software for data collection and analyses using a computer were obtained from SYNTECH (Hilversum, the Netherlands). After an initial temperature of 50° C. held for 2 minutes following injection, the GC oven increased at 15° C./min to 235° C. which was held for 8 minutes.
as §1

The test system of assay [2] is Colorado potato beetle (CPB). Kind of assay: Open Y-track olfactometer behavioral bioassay, optical isomers vs solvent control. Type of assay: in vivo, Leptinotarsa decemlineata. The following applies: serial source loads 0.0001 to 1.0 μg vs solvent control, male and female. The procedure: Chemical blends and plant foliage were tested for behavioral activity in an open Y-track olfactometer modified after Visser and Piron (Visser, J. H., and P. G. M. Piron, Proceedings of the Section Experimental and Applied Entomology of the Netherlands Entomological Society Amsterdam, 9: 41-46 (1998)) and described in detail by Dickens (Dickens, J. C., Agric. Forest Entomol., 1: 47-54 (1999)). In brief, odorous stimuli emanating from volatile collections from CPB males feeding on potato plants or the male-specific compound on filter paper discs (2.5 cm dia.; Whatman™ #1 filter paper) in Ehrlenmeyer flasks were delivered to either side of the device. Hydrocarbon free air that was humidified by passing through distilled water carried the odor molecules to either arm of the bioassay apparatus. Treatments were replenished after 30 min of use in the bioassay apparatus. Airflow was regulated to 1 l/min by flowmeters. Experiments were conducted in a darkened room at 22° C. in which the only source of light was that associated with the bioassay device. For all bioassays, at least 20 males and 20 females were tested.
Volatile collections from male CPB feeding for three hours on a potato plant and serial dilutions of the male specific compound were tested as 10 μl aliquots placed on a filter paper disc as described above. The male specific compound was tested at 1.0 μg/10 μl solvent (hexane) and in a dilution series ranging from 0.0001 to 1.0 μg/10 μl solvent.
Prior to testing at age 7-14 days, unmated insects were held individually in 5.5 oz. cups, provided with fresh potato foliage on a continuous basis, and maintained under incubator conditions of a 16:8 light:dark cycle, 80-90% R.H., and “day” and “night” temperatures of 25° C. and 23° C., respectively. On the day of testing, insects were transferred to smaller 1 oz. cups and held for 1-3 hrs with moist filter paper but no foliage, then held in darkness for an additional 1-2 hrs.
Individual testing in a darkened room at 22° C. began by allowing the beetle to climb onto or be placed approximately midway up the vertical rod of the “T.” In response to a positive phototaxis to light from a flashlight mounted above the “T” and negative geotaxis, the beetles generally climbed upward. Once the insect began waving its antennae, presumably in response to test odors, its forward progress continued. Orientation was scored as soon as the test insect had moved completely from the horizontal to one of the 45 extension arms of the bioassay device. Following each test, the bioassay device was cleaned with acetone to remove contamination left by the insect. For any given series of tests, approximately half were done with the treatment and associated test apparatus on one side, and half were done with them on the other side.
Laboratory bioassays were assessed for significant differences by the hypothesis on binomial proportions based on the standard normal approximation (Brase, C. H., and C. P. Brase (1983), Understanding Statistics, Lexington, Mass.: D. C. Heath).

In the next assay the test system is male CPB. Put plainly: Enhancement of production of male-specific compound CPB I (24 hour volatile collection). The class given is in vivo, Leptinotarsa decemlineata. The procedure: CPB I=male-specific compound; P=6-methyl-5-hepten-2-one; FID=response of flame ionization detector. Electroantennogram (EAD) response is included for A-C.
Volatiles were collected from male CPB feeding on 4.8 g of potato foliage in the 3 L VCC. Collections were made continuously for a 24-hour period with a single VCT. Subsequently, volatiles from groups of 20 female CPB were similarly collected in the 3 L VCC continuously for 24 hours with a single VCT.
In an attempt to increase production of the male specific compound, males were subject to the following treatments: JHIII in acetone, extirpation of both antennae, and extirpation of both antennae+JHIII in acetone. All treatments were repeated at least three times. For the JHIII treatment, […] of a 5 μg/ml solution of JHIII was applied to the prothoracic sternum between the coxae. Antennae were removed at the third segment from the proximal end. All treatments were performed 1 hour before placing beetles into the VCC. For the treatment with both antennae removed+JHIII, three separate collections were made continuously for at least seven days following treatment. The collection chamber was cleaned, rinsed, and fresh foliage added daily.

In the case of `CC(C)=CCCC(C)(O)C(=O)CO` (racemic) [racemic CPB I, 3,7-dimethyl-2-oxo-oct-6-ene-1,3-diol], in assay [1], the “action potentials during 500 msec following the initial phasic increase” value is 18 action potentials. Further, the “Mean EAG (in words)” value with CPB adult antenna (10 ng injection, males and females combined) is given as “intermediate response”. Moreover, the “orientation preference (in words)” value in assay [2] is listed as “no significant preference”.

As to `OCCc1ccccc1` [2-phenyl ethanol, reference compound], the “EAD response to compound in volatile collections (in words)” value in the assay on CPB adult antenna is “an EAD response for 2-phenyl ethanol was also observed”.

As for `CC(C)=CCC[C@@](C)(O)C(=O)CO` [(R)-CPB I], the “action potentials during 500 msec following the initial phasic increase” value in assay [1] is given as 9 action potentials. Also, the “orientation preference (in words)” value in assay [2] is “inactive”; in assay [2] (listed as (R)-enantiomer) it was “no significant preference”.

For `COC(=O)/C=C(\C)CC/C=C(\C)CC[C@H]1OC1(C)C` [JH III, juvenile hormone III], the “production of CPB I after topical treatment” value with male CPB (10 μg JH III topical, 20 males, 24 hour collection, untreated mean 53 ng) came out at 396.2 ng. In addition, in the assay with male CPB (JH III and antennectomy), the “enhancement of collections of CPB I” value was approximately 200 ×. The “enhancement of CPB I production relative to untreated males” value with male CPB (JH III topical alone) is given as “eightfold”. In addition, the “production of CPB I after combined treatment” value in the assay with male CPB (JH III topical and antennectomy) is 8833 ng. The “increase of quantities of CPB I released vs control insects” value with male CPB (JH III treatment and antennectomy) stood at 166 times.

Turning to `CCCCCCCCC=O` [nonanal, reference compound], in the assay with CPB adult antenna, the “EAD response to compound in volatile collections (in words)” value is recorded as “EAD responses were present”.
